Values joined by “and” are separate entries in the source; they are usually repeats but may differ in a detail not shown here. Equal values may be shown once. “Also recorded” adds a separate entry of the source. Read-outs that look alike come from different tables or passages of the source. Blank lines part the entries; values can stand above or below the molecule they belong to.
Columns and labels:
cells = system: cells; set-up: method as in PMID 909432, PMID 4587126; conditions: cited from earlier work
GLS1 = conditions: cited from earlier work; for fold increased inhibitory efficiency compared with DON and BPTES: GLS inhibitors; for potency of GLS1 inhibition in vitro: varying with cell types
[1] = set-up: method as in PMID 30148361; conditions: cited from earlier work
[2] = set-up: method as in PMID 30148361; conditions: cited from earlier work; remark: listed apart in the source
[3] = target: T1, recombinant human glutaminase Δ129GAC (Homo sapiens, UniProt O94925); experiment: Coupled GLS/GDH enzyme assay (HTS and dose response), NADH readout; assay type: biochemical; conditions: for IC50: 10-point dose response, twofold serial dilution 0.39–200 µM, nonlinear curve fitting, read-out: IC50 for Δ129GAC inhibition; for inhibition at 10 µM: HTS, compound 10 µM, read-out: inhibition of Δ129GAC, positive hits of HTS counter screen; for inhibition of His-Δ129GAC reached in the dose response: dose response 0.39–200 µM
T1 construct: to generate peptides from amino acids 17‐598 and 73‐598 and 130‐598, respectively; made in house; host or cells: Escherichia coli BL21DE3 Rosetta (pRARE)
T1 sequence (O94925 130-598 isoform O94925-3): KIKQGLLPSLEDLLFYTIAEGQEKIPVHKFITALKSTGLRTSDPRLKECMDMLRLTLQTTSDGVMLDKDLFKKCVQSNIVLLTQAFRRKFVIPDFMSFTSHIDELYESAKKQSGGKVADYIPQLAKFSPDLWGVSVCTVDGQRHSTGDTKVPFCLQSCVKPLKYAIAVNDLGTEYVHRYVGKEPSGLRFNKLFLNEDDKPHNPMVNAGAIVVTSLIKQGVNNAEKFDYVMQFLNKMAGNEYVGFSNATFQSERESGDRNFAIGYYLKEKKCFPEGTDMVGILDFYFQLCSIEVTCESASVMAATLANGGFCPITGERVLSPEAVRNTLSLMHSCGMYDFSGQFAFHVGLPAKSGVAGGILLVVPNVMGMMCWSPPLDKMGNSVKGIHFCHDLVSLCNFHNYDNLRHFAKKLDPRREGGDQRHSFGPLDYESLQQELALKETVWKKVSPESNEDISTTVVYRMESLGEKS
Procedure: The assay used to determine GLS activity for HTS and enzyme kinetics measurements was adapted from Cassago et al.. In brief, this assay determines the activity of GLS by measuring the amount of NADH produced by glutamate dehydrogenase (GDH) when converting glutamate to α‐ketoglutarate. […] For HTS, the enzyme assay was run using the following conditions: 6 nM Δ129GAC, 50 mM Tris‐acetate, pH 8.6, 3 units of bovine serum GDH (Sigma‐Aldrich), 2 mM NAD^+ (Roche, Basel, Switzerland), 4 mM glutamine, 50 mM K2PO4 (MERCK, Kenilworth, NJ, USA) and 0.005% Tween‐20 (Sigma‐Aldrich). […] 10 nL of each compound was applied to the wells using an ECHO 550 liquid handler (Labcyte, Sunnyvale, CA, USA) followed by dispensing and mixing of 5 µL enzyme assay mix (Hamilton Microlab Star, Reno, NV, USA). This mix was incubated at room temperature for 1 h. Columns 23 and 24 on the plate contained wells for positive and negative controls to determine Z‐factor values. Z‐factor value was calculated based on formula 1: Formula1:[…] σp is the SD of the positive control, σn is the SD of the negative control, µp is the mean of the positive control and µn is the mean of the negative control. Following 1‐h incubation, 5 µL of glutamine (final concentration 4 mM) was added.
To become enzymatically active, the first 16 and 72 amino acids at the N‐terminal must be sequentially deleted in the mitochondria from endogenous GLSGAC [6]. We cloned and expressed three variants of GAC, Δ16GAC, Δ72GAC and Δ129GAC (Fig. 1A,B). […] Next, Δ129GAC PCR product was cloned into pET‐24(b) which contained DNA encoding sequence for a His‐tag. […] Using His‐Δ129GAC, a HTS GAC enzyme activity assay was modified according to Cassago et al.. Briefly, the assay is a two‐step enzymatic assay where glutamine converted to glutamate by His‐Δ129GAC and further to α‐ketoglutarate and NADH by GDH (Fig. 1D). The glutamine consumption activity of His‐Δ129GAC was determined by assuming a stoichiometric ratio of one glutamine consumed to every molecule of NADH produced.

human CD4+ T cells = experiment: CFSE-based anti-CD3/CD28-induced CD4+ T-cell proliferation assay; conditions: for percentage of proliferating cells (CFSE dilution), mean: compound 25 µM, anti-CD3/CD28 beads 1:1, 96 h, stimulated control 71.70% ± 1.60
Procedure: Human CD4+ T cells were isolated from buffy coats of healthy donors (obtained from Blodbanken, Oslo, Norway) using the Dynabeads CD4 Positive Isolation Kit (Life Technologies AS, Norway) according to the manufacturer's protocol. […] After 4 days of incubation, beads were removed; cells were washed with 1x PBS, and T‐cell proliferation was assessed by measuring the CFSE dilution using flow cytometry.

[4] = system: anti-CD3/CD28-induced CD4+ T cells; conditions: cited from earlier work
[5] = target: T2, glutamate dehydrogenase (GDH) (Bos taurus, UniProt P00366); experiment: GDH counter assay (secondary enzyme of the coupled assay); assay type: biochemical, bovine
T2 construct: purchased Sigma‐Aldrich
T2 sequence (P00366 58-558): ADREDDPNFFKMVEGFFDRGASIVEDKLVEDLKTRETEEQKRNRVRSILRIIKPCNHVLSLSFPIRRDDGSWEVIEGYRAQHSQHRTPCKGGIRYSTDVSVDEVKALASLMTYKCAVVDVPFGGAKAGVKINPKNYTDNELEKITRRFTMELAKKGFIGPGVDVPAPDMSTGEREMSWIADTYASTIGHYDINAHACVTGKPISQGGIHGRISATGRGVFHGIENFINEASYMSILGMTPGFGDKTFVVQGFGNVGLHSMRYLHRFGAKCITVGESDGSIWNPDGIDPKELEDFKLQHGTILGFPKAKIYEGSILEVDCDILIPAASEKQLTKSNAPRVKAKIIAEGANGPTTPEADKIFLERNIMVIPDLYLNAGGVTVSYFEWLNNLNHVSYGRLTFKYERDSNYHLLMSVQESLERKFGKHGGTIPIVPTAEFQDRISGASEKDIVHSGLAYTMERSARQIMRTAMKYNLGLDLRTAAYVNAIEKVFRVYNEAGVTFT

MDA-468 TNBC cells = experiment: Thymidine incorporation proliferation assay, MDA-468; assay type: cell-based; conditions: 72 h, read-out: IC50 proliferation MDA-468, thymidine incorporation after 72 h
MDA-231 TNBC cells = experiment: Thymidine incorporation proliferation assay, MDA-231; assay type: cell-based; conditions: Homo sapiens, MDA-MB-231, 72 h, read-out: IC50 proliferation MDA-231
[6] = target: T1, recombinant human glutaminase Δ129GAC; experiment: Steady-state kinetic analysis of Δ129GAC in the presence of C19; assay type: biochemical
Procedure: […] of NADH in the HTS was measured at 340 nm after 5 min, and quantification was done by using the extinction coefficient for NADH of 6220 M^−1·cm^−1 and 7.7 mm of path length. The total reaction volume was 80 µL, and the measurements were performed on a FluoStar Optima (BMB Labtech, Ortenberg, Germany) microplate reader. The experiments were done in 5 replicates at 12 different substrate concentrations ranging from 0.39 to 50 mM. The kinetics were determined at compound concentrations of 16, 25 and 30 µM.

His-Δ129GAC = target: T3, His-Δ129GAC (Homo sapiens, UniProt O94925); experiment: Microscale thermophoresis (MST), labelled and nonlabelled; assay type: binding; conditions: 25 °C
T3 construct: to generate peptides from amino acids 17‐598 and 73‐598 and 130‐598, respectively; made in house; host or cells: Escherichia coli BL21DE3 Rosetta (pRARE)
T3 sequence (O94925 130-598 isoform O94925-3): T1 sequence (O94925 130-598 isoform O94925-3)
Procedure: For the nonlabelled microscale thermophoresis (MST) assay, a 16‐point titration series of compound was done in a protein concentration of 100 nM Δ129GAC. […] Samples were loaded into Zero Background MST Premium Coated Capillaries, and measurements were done with a Monolith NT Label‐Free instrument (NanoTemper) at 25 °C using 20% MST power and 20% excitation power. […] For labelled analyses, MST Premium Coated Capillaries were used. The experiments were performed in duplicates and data presented as mean values ± standard deviation (SD). Data were normalized and nonlinear curve fitted using […] PRISM version 6 (La Jolla, CA, USA).

[7] = system: cytokine production of anti-CD3/CD28-stimulated CD4+ T cells; experiment: Luminex screening assay of cytokines in T-cell culture supernatants; assay type: cell-based, human; conditions: compound 25 µM, day 3, normalized to stimulated control
Procedure: Supernatants from T‐cell cultures were harvested after 3 days of stimulation and stored at −20 °C. Samples were diluted twofold, and the human magnetic luminex screening assay (R&D Systems, Minneapolis, MN, USA) for TNF‐α, IL‐6, IL‐10, INF‐g, IL‐4, IL‐17α, IL‐2 was performed according to manufacturer’s instructions. Data were analysed with Milliplex Analyst (Merck Millipore) and standard curves set according to manufacturer's recommendations.

SMILES: [N-]=[N+]=CC(=O)CC[C@H](N)C(=O)O [DON, 6‐diazo‐5‐oxonorleucine]
- off-target toxicity to cells (cells): toxic to cells

SMILES: O=c1c2ccccc2[se]n1-c1ccccc1 [ebselen]
- fold increased inhibitory efficiency compared with DON and BPTES (GLS1): over 100 fold

SMILES: CN(C)c1ccc(C2Nc3ccc4ccccc4c3C3=C2C(=O)CC(C)(C)C3)cc1Br (stereo not shown) [compound 968, 5‐(3‐Bromo‐4‐(dimethylamino)phenyl)‐2,2‐dimethyl‐2,3,5,6‐tetrahydrobenzo[a]phenanthridin‐4(1H)‐one]
- potency of GLS1 inhibition in vitro (GLS1): 2.5 µM
- aqueous solubility [1]: poor
- metabolic stability [2]: poor

SMILES: COc1ccc2c(c[n+](C)c3c4cc5c(cc4ccc23)OCO5)c1OC [chelerythrine]
- fold increased inhibitory efficiency compared with DON and BPTES (GLS1): over 100 fold

SMILES: CN1CCc2cccc3c2[C@H]1Cc1ccc(O)c(O)c1-3 [apomorphine]
- fold increased inhibitory efficiency compared with DON and BPTES (GLS1): over 100 fold

- IC50 [3]: 2.3 µM
- inhibition at 10 µM [3]: ≥ 50%
SMILES: Sc1nc(-c2ccccc2)cn1N=Cc1ccncc1 [C2]
- inhibition of His-Δ129GAC reached in the dose response [3]: did not inhibit Δ129GAC activity by 100%; also recorded: incapable of completely inhibiting
- inhibition of CD3/CD28-induced CD4+ T-cell proliferation (human CD4+ T cells): not

SMILES: O=C(Cc1ccccc1)Nc1nnc(CCSCCc2nnc(NC(=O)Cc3ccccc3)s2)s1 [BPTES, bis‐2‐(5‐phenylacetamido‐1,3,4‐thiadiazol‐2yl)ethyl sulfide]
- percentage of proliferating cells (CFSE dilution), mean (human CD4+ T cells): 15.03%

- effect on GDH activity ([5]; 10 µM CB839 for 2 h): did not influence GDH activity
SMILES: O=C(Cc1cccc(OC(F)(F)F)c1)Nc1ccc(CCCCc2nnc(NC(=O)Cc3ccccn3)s2)nn1 [CB839, Telaglenastat]
- effect on GDH activity ([5]; 30 nM CB839, measured after 20 min, glutamate as substrate): no effect on GDH activity; also recorded: no inhibition effect
- IC50 (MDA-468 TNBC cells): 0.0112 µM
- IC50 (MDA-231 TNBC cells): 0.00019 µM

- IC50 [3]: 5.7 µM
- inhibition at 10 µM [3]: ≥ 50%
- inhibition of His-Δ129GAC reached in the dose response [3]: incapable of completely inhibiting
- inhibition of His-Δ129GAC reached in the dose response ([3]; listed as 15): did not inhibit Δ129GAC activity by 100%
SMILES: Cc1ccc(-c2nnc3n2CCCCC3)cc1NC(=O)Cc1sc(S)nc1C [C15]
- inhibition of CD3/CD28-induced CD4+ T-cell proliferation (human CD4+ T cells): not

- IC50 [3]: 6.8 µM
- inhibition at 10 µM [3]: ≥ 50%
- effect on Km of His-Δ129GAC ([6]; C19 0–30 µM): not significantly affected
- K cat ([6]; [I] 16 µM C19): 23.03 ± 0.6245 s⁻¹
- V max ([6]; [I] 16 µM C19, 6 nM Δ129GAC): 44.22 ± 1.1990 pmol/s
- K cat ([6]; [I] 25 µM C19): 16.46 ± 0.6640 s⁻¹
- V max ([6]; [I] 25 µM C19, 6 nM Δ129GAC): 31.59 ± 1.2750 pmol/s
- K cat ([6]; [I] 30 µM C19): 12.31 ± 0.2425 s⁻¹
- Kd (His-Δ129GAC; 100 nM nonlabelled Δ129GAC, C19 0–1000 µM, read-out: Kd, nonlabelled MST): 20 ± 4.8 µM
- Kd (His-Δ129GAC; NT-647-labelled Δ129GAC 25 nM, read-out: Kd, labelled MST): 14.7 µM
SMILES: O=C(NCCNc1nc2ccccc2s1)c1cccnc1S [C19]
- mode of inhibition with respect to the substrate ([6]; C19 0, 16, 25, 30 µM): noncompetitive inhibitor; also recorded: noncompetitive inhibition
- V max ([6]; [I] 30 µM C19, 6 nM Δ129GAC): 23.63 ± 0.47 pmol/s and 23.63 ± 0.4655 pmol/s
- IC50 (human CD4+ T cells; Homo sapiens, CD4+ T cell): 11 µM
- percentage of proliferating cells (CFSE dilution), mean (human CD4+ T cells): 9.16%
- levels of TNF-α, IL-10, IL-2, IL-6, INF-γ, IL-17A and IL-4 in supernatants [7]: significant decrease; also recorded: significantly better than BPTES

Reference: paper PMC8727943, “Identification and characterization of a novel glutaminase inhibitor” (FEBS Open Bio, 2021)
